Assay results: ChEMBL document CHEMBL4715696, “In vitro synergistic anticancer activity of the combination of T-type calcium channel blocker and chemotherapeutic agent in A549 cells” (Bioorg Med Chem Lett, 2016)

Tests used:
A549 [1] = experiment: Decrease in cell cycle associated protein expression in human A549 cells assessed as reduction in CDK6 expression after 48 hrs by Western blot analysis; assay type: functional, cell-based; settings: dose 2.5-10 µM
A549 [2] = experiment: Decrease in cell cycle associated protein expression in human A549 cells assessed as fold change in CDK6 expression at 10 uM after 12 hrs by Western blot analysis (reference value: 0.7); assay type: functional
A549 [3] = experiment: Decrease in cell cycle associated protein expression in human A549 cells assessed as fold change in cyclin D1 expression at 10 uM after 12 hrs by Western blot analysis (reference value: 0.68); assay type: functional
A549 [4] = experiment: Decrease in cell cycle associated protein expression in human A549 cells assessed as fold change in cyclin D3 expression at 10 uM after 6 hrs by Western blot analysis (reference value: 1.09); assay type: functional
A549 [5] = experiment: Potentiation of cisplatin-induced cell cycle arrest in human A549 cells assessed as accumulation at sub G1 phase at 5 uM in presence of cisplatin after 48 hrs by flow cytometric analysis (reference value: 17%); assay type: functional
A549 [6] = experiment: Decrease in cell cycle associated protein expression in human A549 cells assessed as fold change in cyclin D2 expression at 10 uM after 36 hrs by Western blot analysis (reference value: 0.77); assay type: functional
A549 [7] = experiment: Decrease in cell cycle associated protein expression in human A549 cells assessed as fold change in CDK2 expression at 10 uM after 24 hrs by Western blot analysis (reference value: 0.79); assay type: functional
A549 [8] = experiment: Decrease in cell cycle associated protein expression in human A549 cells assessed as fold change in CDK2 expression at 10 uM after 12 hrs by Western blot analysis (reference value: 0.79); assay type: functional
A549 [9] = experiment: Potentiation of cisplatin-induced cell cycle arrest in human A549 cells assessed as accumulation at sub G1 phase at 2.5 uM in presence of cisplatin after 48 hrs by flow cytometric analysis (reference value: 17%); assay type: functional
A549 [10] = experiment: Potentiation of etoposide-induced apoptosis in human A549 cells assessed as early apoptotic cells at 10 uM incubated for 48 hrs by AnnexinV-FITC/propidium iodide staining based flow cytometry (reference value: 19.1%); assay type: functional
A549 [11] = experiment: Decrease in cell cycle associated protein expression in human A549 cells assessed as fold change in cyclin D1 expression at 10 uM after 48 hrs by Western blot analysis (reference value: 0.39 to 0.68); assay type: functional
[12] = Upregulation of p27KIP1 protein expression in human A549 cells assessed as fold change in expression at 5 uM after 48 hrs by Western blot analysis (reference value: 0.48); assay type: functional
A549 [13] = experiment: Decrease in cell cycle associated protein expression in human A549 cells assessed as reduction in cyclin D2 expression at 10 uM by Western blot analysis; assay type: functional, cell-based; settings: time 6-48 hrs, TDE = time-dependent effect
A549 [14] = experiment: Decrease in cell cycle associated protein expression in human A549 cells assessed as fold change in cyclin D2 expression at 5 uM after 48 hrs by Western blot analysis (reference value: 0.46); assay type: functional
A549 [15] = experiment: Decrease in cell cycle associated protein expression in human A549 cells assessed as fold change in cyclin D2 expression at 10 uM after 48 hrs by Western blot analysis (reference value: 0.46 to 0.77); assay type: functional
A549 [16] = experiment: Potentiation of etoposide-induced cell cycle arrest in human A549 cells assessed as accumulation at S phase at 2.5 uM in presence of etoposide after 48 hrs by flow cytometric analysis (Rvb =12.3%); assay type: functional
[17] = Upregulation of p27KIP1 protein expression in human A549 cells assessed as fold change in expression at 10 uM after 48 hrs by Western blot analysis (reference value: 0.48 to 0.83); assay type: functional
A549 [18] = experiment: Decrease in cell cycle associated protein expression in human A549 cells assessed as fold change in cyclin D1 expression at 10 uM after 24 hrs by Western blot analysis (reference value: 0.68); assay type: functional
A549 [19] = experiment: Upregulation of p27KIP1 protein expression in human A549 cells at 10 uM by Western blot analysis; assay type: functional, cell-based; settings: time 6-48 hrs, TDE = time-dependent effect
A549 [20] = experiment: Potentiation of etoposide-induced cell cycle arrest in human A549 cells assessed as accumulation at G2/M phase at 10 uM in presence of etoposide after 48 hrs by flow cytometric analysis (Rvb =18.9%); assay type: functional
A549 [21] = experiment: Decrease in cell cycle associated protein expression in human A549 cells assessed as fold change in cyclin D3 expression at 10 uM after 48 hrs by Western blot analysis (reference value: 0.73 to 1.09); assay type: functional
A549 [22] = experiment: Decrease in cell cycle associated protein expression in human A549 cells assessed as fold change in cyclin D3 expression at 10 uM after 24 hrs by Western blot analysis (reference value: 1.09); assay type: functional
[23] = Upregulation of p27KIP1 protein expression in human A549 cells assessed as fold change in expression at 10 uM after 6 hrs by Western blot analysis (reference value: 0.83); assay type: functional
[24] = Protein binding in human plasma at 10 uM after 4 hrs; assay type: ADME, cell-free; settings: read-out: PPB (converted)
[25] = Upregulation of p27KIP1 protein expression in human A549 cells assessed as fold change in expression at 10 uM after 24 hrs by Western blot analysis (reference value: 0.83); assay type: functional
A549 [26] = experiment: Potentiation of cisplatin-induced cell cycle arrest in human A549 cells assessed as accumulation at S phase at 10 uM in presence of cisplatin after 48 hrs by flow cytometric analysis (Rvb =15.8%); assay type: functional
A549 [27] = experiment: Potentiation of cisplatin-induced cell cycle arrest in human A549 cells assessed as accumulation at G1 phase at 2.5 uM in presence of cisplatin after 48 hrs by flow cytometric analysis (reference value: 14.4%); assay type: functional
A549 [28] = experiment: Induction of cell cycle arrest in human A549 cells assessed as accumulation at G1 phase at 2.5 uM after 48 hrs by flow cytometric analysis (Rvb =65.5%); assay type: functional
A549 [29] = experiment: Decrease in cell cycle associated protein expression in human A549 cells assessed as fold change in CDK4 expression at 5 uM after 48 hrs by Western blot analysis (reference value: 0.62); assay type: functional
A549 [30] = experiment: Decrease in cell cycle associated protein expression in human A549 cells assessed as fold change in cyclin E expression at 10 uM after 36 hrs by Western blot analysis (reference value: 0.55); assay type: functional
A549 [31] = experiment: Decrease in cell cycle associated protein expression in human A549 cells assessed as fold change in cyclin E expression at 10 uM after 24 hrs by Western blot analysis (reference value: 0.55); assay type: functional
A549 [32] = experiment: Decrease in cell cycle associated protein expression in human A549 cells assessed as fold change in cyclin E expression at 10 uM after 48 hrs by Western blot analysis (reference value: 0.37 to 0.55); assay type: functional
A549 [33] = experiment: Potentiation of cisplatin-induced cell cycle arrest in human A549 cells assessed as accumulation at G1 phase at 10 uM in presence of cisplatin after 48 hrs by flow cytometric analysis (reference value: 14.4%); assay type: functional
A549 [34] = experiment: Decrease in cell cycle associated protein expression in human A549 cells assessed as fold change in CDK6 expression at 10 uM after 48 hrs by Western blot analysis (reference value: 0.7 to 1.05); assay type: functional

- fraction unbound at 4 h, 10 µM [24]: < 0.01
SMILES: CN(C)C(=O)NCCCN(C)C1=Nc2ccccc2C(CC(=O)NCc2ccc(F)cc2)N1c1ccc(C2CCCCC2)cc1 (centres undefined)
- Activity (A549 [1]): Dose-dependent effect
- fold change (FC) (A549 [2]): 0.64
- fold change (FC) (A549 [3]): 0.35
- fold change (FC) (A549 [4]): 1.23
- Activity (A549 [5]): 24.8%
- fold change (FC) (A549 [6]): 0.61
- fold change (FC) (A549 [7]): 0.61
- fold change (FC) (A549 [8]): 0.62
- Activity (A549 [9]): 18.6%
- Activity (A549 [10]): 49.1%
- fold change (FC) (A549 [11]): 0.55
- fold change (FC) [12]: 0.76
- Activity (A549 [13]): Tde
- fold change (FC) (A549 [14]): 0.52
- fold change (FC) (A549 [15]): 0.18
- Activity (A549 [16]): 10.7%
- fold change (FC) [17]: 0.93
- fold change (FC) (A549 [18]): 0.37
- Activity (A549 [19]): Tde
- Activity (A549 [20]): 3.2%
- fold change (FC) (A549 [21]): 0.55
- fold change (FC) (A549 [22]): 0.51
- fold change (FC) [23]: 0.3
- fold change (FC) [25]: 1.05
- Activity (A549 [26]): 6.1%
- Activity (A549 [27]): 19.2%
- Activity (A549 [28]): 69.3%
- fold change (FC) (A549 [29]): 0.64
- fold change (FC) (A549 [30]): 0.18
- fold change (FC) (A549 [31]): 0.08
- fold change (FC) (A549 [32]): 0.01
- Activity (A549 [33]): 32.4%
- fold change (FC) (A549 [34]): 0.14
